Results: the METLIN SMRT retention time set (Domingo-Almenara et al. 2019)

Experiment: gradient 5% acetonitrile 3 min, to 50% in 2 min, to 85% in 15 min, held 3 min, 100 µL/min
Settings: column: Zorbax Extend-C18 2.1 x 50 mm; eluents: water / acetonitrile, 0.1% formic acid
How it was run: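 The system's dead and dwell volumes were 40 μL and 900 μL, with a Zorbax Extend-C18 column (2.1 × 50 mm, 1.8 μm) run at 100 μL/min in water and acetonitrile containing 0.1% formic acid each. Pure standards were analyzed in mixtures of ~100 molecules by HPLC–quadrupole time-of-flight mass spectrometry in positive and negative ionization mode. Retention time was assigned from computationally picked, manually inspected adduct peaks.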

With `Cc1ccc2c(c1)N(C(=O)Cn1ncn3c(C)c(C(=O)NCc4ccccc4)c(C)c3c1=O)CCO2` the RP-LC retention time was 886 s.

`Cn1c(=O)oc2cc(-c3noc(-c4ccc(F)cc4)n3)ccc21` showed an RP-LC retention time of 831 s.

Work on `COC(=O)C1=C(CN2CCN(C)CC2)NC(=O)NC1c1ccc(OC)c(OC)c1` (stereo not given) yielded an RP-LC retention time of 567 s.

With `COc1cccc(NC(=O)Nc2ccc3nc4n(c(=O)c3c2)CCC4)c1` the RP-LC retention time was 673 s.

Work on `Cc1cc(N2CCN(S(=O)(=O)c3ccccc3Cl)CC2)nc(NC2CCCCC2)n1` yielded an RP-LC retention time of 838 s.

In the case of `Cc1noc(C)c1CCC(=O)N1CCN(Cc2csc(-c3ccccc3)n2)CC1`, the RP-LC retention time is reported as 576 s.

`O=S(=O)(c1cccnc1)N1CCC(c2ccccc2)C1` (stereo not given) showed an RP-LC retention time of 773 s.

Work on `COc1ccc(-n2ccn3cc(-c4cccc(Cl)c4)nc3c2=O)cc1` yielded an RP-LC retention time of 873 s.

In the case of `COc1ccc(C)cc1NS(=O)(=O)c1cc2c(s1)CCN(C(=O)C1CC1)C2`, the RP-LC retention time is reported as 839 s.

In the case of `Cc1ccc(NC(=O)Cn2c(=O)n(-c3ccc(F)cc3)c(=O)c3c2cc(C)n3C)c(C)c1`, the RP-LC retention time is reported as 879 s.

In the case of `O=C(Nc1ccc(F)cc1Cl)C1CCc2sc(C(=O)N3CCOCC3)cc2C1` (stereo not given), the RP-LC retention time is reported as 748 s.

With `CCn1nccc1-c1cccc(-c2noc(-c3cc4ccccc4oc3=O)n2)c1` the RP-LC retention time was 1060 s.

Molecule `COc1ccc(-c2ncc3c(n2)CCN(C(=O)c2ccc(Br)cc2)C3)cc1` has an RP-LC retention time of 1000 s.

In the case of `Cc1ccc(CNC(=O)C2(C)CCCN(C(=O)Nc3cccc(Cl)c3)C2)cc1` (stereo not given), the RP-LC retention time is reported as 1040 s.

`CC(NC(=O)C1CCN(C(=O)c2ncn3c2COC(c2ccc(Cl)cc2)C3)CC1)c1ccccc1` (stereo not given) showed an RP-LC retention time of 854 s.

Molecule `O=C(CCn1c(N2CCCCC2)nc2ccccc2c1=O)N1CCN(c2ccccn2)CC1` has an RP-LC retention time of 630 s.

`CC1Cc2ccccc2N1C(=O)c1ccc(=O)n(CCC(=O)N2CCN(C3CCCCC3)CC2)n1` (stereo not given) showed an RP-LC retention time of 654 s.

In the case of `CCCCn1c(=O)c2ccccc2n(Cc2nc(-c3ccccc3OC)no2)c1=O`, the RP-LC retention time is reported as 1050 s.

With `NC(=O)C1CCN(C(=O)C2CCN(S(=O)(=O)Cc3ccc(Cl)cc3)CC2)CC1` the RP-LC retention time was 678 s.

`COc1ccc(-c2noc(C3CCCN3C(=O)Nc3cc(OC)cc(OC)c3)n2)cc1` (stereo not given) gave an RP-LC retention time of 941 s.

For `CSc1nnc(-c2nn(C)c3c2CN(C(=O)c2cccc(N(C)C)c2)CC3)n1C`, the RP-LC retention time was 669 s.

`Cc1ccc(/C=C/c2nc(-c3cccc(-c4ccnn4C)c3)no2)cc1` showed an RP-LC retention time of 1270 s.

`O=S(=O)(c1cc(-c2nnc(C3CCCC3)o2)co1)N1CCC(N2CCCCC2)CC1` gave an RP-LC retention time of 670 s.

`COc1cccc(CC2C(=O)Nc3ccc(Br)cc32)c1OC` (stereo not given) showed an RP-LC retention time of 842 s.

`Cc1cc(-n2c(C)nc3ccccc3c2=O)ccc1NC(=O)CCC1CCCC1` gave an RP-LC retention time of 892 s.

`COCCC(=O)N1CCC(Oc2nccnc2N2CCc3ccccc32)C1` (stereo not given) gave an RP-LC retention time of 797 s.

For `CCc1nccn1Cc1nc(-c2ccc(OC)cc2)no1`, the RP-LC retention time was 620 s.

`Cc1ccc(CNC(=O)Cn2cnc3nc(N4CCCC(C(=O)NC(C)C)C4)sc3c2=O)cc1` (stereo not given) showed an RP-LC retention time of 710 s.

Work on `CSc1nsc(NN)n1` yielded an RP-LC retention time of 647 s.

With `CCOC(=O)c1ccccc1NC(=O)CN1CCC(Cn2cnc3ccccc32)CC1` the RP-LC retention time was 556 s.

Molecule `COc1ccc(N2CCN(C(=O)Cn3cccc3-c3nnc(C4CCC4)o3)CC2)cc1` has an RP-LC retention time of 795 s.

In the case of `N=c1nc(N2CCCCC2)cc(N)n1O`, the RP-LC retention time is reported as 676 s.

`CCN1C(=O)c2cc(S(=O)(=O)Nc3ccc(Cl)cc3F)ccc2Oc2cccnc21` showed an RP-LC retention time of 1070 s.

`COc1ccc(OCC(=O)N2CCC(Nc3cccnc3)C2)cc1` (stereo not given) showed an RP-LC retention time of 726 s.

For `Cc1ccc(C)c(CNC(=O)c2nnc(-c3ccc(S(=O)(=O)N(C)C)cc3)o2)c1`, the RP-LC retention time was 950 s.

Work on `O=C(NCc1ccco1)Nc1cccc(-c2noc(C3CCC3)n2)c1` yielded an RP-LC retention time of 912 s.

Molecule `COc1ccccc1C(=O)N1CCN(c2ccc(-c3nc(C)c(C)s3)cn2)CC1` has an RP-LC retention time of 851 s.

In the case of `Cc1noc(C)c1-c1ccc(S(=O)(=O)NC(C)C)cc1`, the RP-LC retention time is reported as 812 s.

Molecule `Cc1ccccc1-c1nnc(COc2ccc(NC(=O)c3ccoc3)cc2)o1` has an RP-LC retention time of 872 s.

Work on `COc1cc2c(cc1CC=C(C)C)C(=O)C[C@@H](c1ccc(O)cc1)O2` yielded an RP-LC retention time of 1190 s.

For `O=C(CN1C(=O)COc2ccc(C(=O)N3CCCC3)cc21)NCc1ccc(Cl)cc1`, the RP-LC retention time was 745 s.

`O=C(Nc1ccc2c(c1)CN(C(=O)c1ccccc1)CC2)c1ccc(Br)o1` gave an RP-LC retention time of 819 s.

With `COc1cccc(CC(=O)NCC(=O)Nc2nc3ccccc3n2C)c1` the RP-LC retention time was 645 s.

`O=C(N1CCCC1c1noc(COCc2ccccc2)n1)C1(c2ccccc2)CC1` (stereo not given) gave an RP-LC retention time of 1040 s.

In the case of `O=C(Nc1ccc(-c2nc(-c3ccccc3)co2)cc1)C1CCCCC1`, the RP-LC retention time is reported as 1210 s.

`CCc1nnc2ccc(-c3noc(-c4cc(Cl)ccc4F)n3)cn12` gave an RP-LC retention time of 1010 s.

Work on `CCn1nc(C)c(CCNC(=O)c2cc3c(=O)n(CCOC)ccc3nc2C)c1C` yielded an RP-LC retention time of 576 s.

In the case of `CCn1nccc1C(=O)NCCn1c(=O)n(Cc2cccc(C)c2)c2cccnc21`, the RP-LC retention time is reported as 784 s.

For `CCc1nc2cc(-c3noc(-c4ccc(NC(C)=O)cc4)n3)ccc2o1`, the RP-LC retention time was 925 s.

`CCn1c(C(=O)N2CCOCC2)cc2c(=O)oc3ccccc3c21` showed an RP-LC retention time of 713 s.

Work on `CCOC(=O)c1c(C)c(CCC(=O)NCCN2CCCCCC2)c(C)n1C` yielded an RP-LC retention time of 656 s.

Molecule `Cc1ccc(CNC(=O)C2(C)CCCN(C(=O)Nc3ccccc3Br)C2)cc1` (stereo not given) has an RP-LC retention time of 1020 s.

For `CC1CN([C@H]2C[C@@H](N=[N+]=[N-])[C@@H](CO)O2)C(=O)NC1=O` (stereo not given in full), the RP-LC retention time was 644 s.

In the case of `CSc1cccc(NC(=O)Cn2cccc2-c2nc(-c3ccc4c(c3)OCO4)no2)c1`, the RP-LC retention time is reported as 1110 s.

Work on `CCCNc1cc(N2CCC(CCC(=O)NCCOC)CC2)ncn1` yielded an RP-LC retention time of 590 s.

`CS(=O)(=O)N1CCC(C(=O)Nc2ccccc2F)Oc2ccc(Cl)cc21` (stereo not given) showed an RP-LC retention time of 960 s.

Work on `CC(C)CN1C(=O)c2cccn2CC1C(=O)N1CCOCC1` (stereo not given) yielded an RP-LC retention time of 624 s.

`Cc1nc(-c2ccncc2)cc2nn(CC(=O)NCc3ccccc3)c(=O)n12` gave an RP-LC retention time of 697 s.

In the case of `O=C(Nc1ccccc1)c1cc(C2CC2)n2nccc2n1`, the RP-LC retention time is reported as 957 s.

Work on `NC(=O)c1cnn(-c2cccc(F)c2)c1-n1cccc1` yielded an RP-LC retention time of 734 s.

Work on `COc1ccc(-c2nc(-c3nnn(-c4ccccc4)c3C)no2)cc1OC` yielded an RP-LC retention time of 892 s.

Work on `O=c1c(NC2CCCCC2)nc2ccncc2n1Cc1ccccc1` yielded an RP-LC retention time of 745 s.

`Cc1ccc(C)c(CNC(=O)c2cc(-c3ccncc3)cn2C)c1` showed an RP-LC retention time of 679 s.

In the case of `Cc1ccc(C2=NC3(CCN(C(=O)Cc4ccccc4C)CC3)ON2)cc1`, the RP-LC retention time is reported as 933 s.

With `CCOC(=O)C1CCN(C(=O)C2CCCN(c3nccc(C)n3)C2)CC1` (stereo not given) the RP-LC retention time was 698 s.

Work on `O=C(C1CCCCC1)N1CCN(c2ccc(=O)n(-c3ccccc3)n2)CC1` yielded an RP-LC retention time of 790 s.

In the case of `Cc1nc(-c2csc(S(=O)(=O)N3CCC(C(=O)Nc4ccc(Cl)cc4)CC3)c2)no1`, the RP-LC retention time is reported as 986 s.

For `Cc1ccc(-c2ncc(C(=O)NCCN3CCCCCC3)c(-c3ccncc3)n2)cc1`, the RP-LC retention time was 637 s.

`CCn1cnnc1C1CCCCN1S(=O)(=O)c1ccccc1F` (stereo not given) showed an RP-LC retention time of 706 s.

`CCOc1ccc(NC(=O)Cn2c(=O)n(-c3cccc(C)c3)c(=O)c3c2cc(C)n3C)cc1` showed an RP-LC retention time of 864 s.

Molecule `COCCCNC(=O)c1nccnc1NC(=O)c1ccc(C)cc1` has an RP-LC retention time of 791 s.

With `COc1ccc2c(CCNC(=O)c3ccc4c(c3)OCCO4)c[nH]c2c1` the RP-LC retention time was 684 s.

With `Cc1ccc(S(=O)(=O)c2cnc(N3CCN(C4CCCCC4)CC3)nc2N)cc1C` the RP-LC retention time was 718 s.

With `Cc1cc(C)c2c(N3CCOCC3)nc(C(=O)N(C)Cc3ccco3)nc2n1` the RP-LC retention time was 611 s.

Work on `Cc1ccc(CSc2nccc3c2ccn3CC(=O)NCc2ccco2)cc1` yielded an RP-LC retention time of 729 s.

In the case of `CCOc1ccc2nc(C(=O)NC(CC)c3ccc(OC)cc3)cn2n1` (stereo not given), the RP-LC retention time is reported as 897 s.

Molecule `CCc1noc(-c2ccc(-n3cnc(C(=O)N4CCc5ccccc5C4)c3)nc2)n1` has an RP-LC retention time of 924 s.

With `CSc1ccc(CNC(=O)Cc2c(C(=O)O)c(C)cn2C)cc1` the RP-LC retention time was 757 s.

For `COc1ccc(-c2nc3cnccn3c2Nc2cccc(C(=O)O)c2)cc1`, the RP-LC retention time was 894 s.

`Cc1sc2ccn(CC(C)C)c(=O)c2c1C(=O)N1CCN(c2ccccn2)CC1` gave an RP-LC retention time of 618 s.

With `Cc1ccc(-c2nc(CN(c3ccccc3)S(=O)(=O)c3cccs3)c(C)o2)cc1` the RP-LC retention time was 1200 s.

In the case of `CC(C)CN1C(=O)CCc2cc(NS(=O)(=O)c3ccccc3)ccc21`, the RP-LC retention time is reported as 844 s.

`CC(C(=O)Nc1ccc(F)cc1)C1CCN(C(=O)Nc2ccc(F)cc2)CC1` (stereo not given) showed an RP-LC retention time of 834 s.

Work on `CCOc1ccc(C(=O)NCCc2nc3cccnc3n2CC)cc1` yielded an RP-LC retention time of 642 s.

In the case of `CCCn1cc(CCNC(=O)Nc2ccccc2C)c2cccnc21`, the RP-LC retention time is reported as 717 s.

In the case of `CCCn1c(CN2CCOCC2)nc2cc(NC(=O)CC(C)C)ccc21`, the RP-LC retention time is reported as 633 s.

Molecule `Cc1c(S(=O)(=O)Nc2ccccc2)c(C)n(C)c1-c1nnc(C2CCC2)o1` has an RP-LC retention time of 870 s.

`CCOc1ccc(S(=O)(=O)N2CC=C(c3cn(C(C)C)c4ncccc34)CC2)cc1` gave an RP-LC retention time of 645 s.

`Cc1ccc(NC(=O)CSc2nnc(NC(=O)c3cc(C4CC4)on3)s2)cc1Cl` showed an RP-LC retention time of 926 s.

With `Cc1ccc(-c2nc(Nc3ccccc3F)sc2C)cc1` the RP-LC retention time was 1340 s.
